Assay results published in patent EP1068805A1, “Dietetic foods and pharmaceutical preparations inhibiting blood coagulation” (CPC INTERNATIONAL INC., priority 1996, dated 1997).
Read-outs that look alike come from different tables or passages of the source.

Assays:
[1] = tested on: plasma prothrombin; assay: Effect of dietary oils on plasma prothrombin concentration (rat feeding study); assay type: in vivo, Wistar rats; conditions: animal data extrapolated to adult reference person of about 60 kg
[2] = molecular target: T1, Υ-glutamylcarboxylase (Rattus norvegicus, UniProt O88496); assay: Inhibition of carboxylase activity in salt-washed liver microsomes, rat system; assay type: biochemical, rats of the Lewis strain; conditions: cofactor KH2; mean of triplicate experiments with S.E.M.; read-out: I-50 (µM) in rat system
T1 sequence (O88496 1-758): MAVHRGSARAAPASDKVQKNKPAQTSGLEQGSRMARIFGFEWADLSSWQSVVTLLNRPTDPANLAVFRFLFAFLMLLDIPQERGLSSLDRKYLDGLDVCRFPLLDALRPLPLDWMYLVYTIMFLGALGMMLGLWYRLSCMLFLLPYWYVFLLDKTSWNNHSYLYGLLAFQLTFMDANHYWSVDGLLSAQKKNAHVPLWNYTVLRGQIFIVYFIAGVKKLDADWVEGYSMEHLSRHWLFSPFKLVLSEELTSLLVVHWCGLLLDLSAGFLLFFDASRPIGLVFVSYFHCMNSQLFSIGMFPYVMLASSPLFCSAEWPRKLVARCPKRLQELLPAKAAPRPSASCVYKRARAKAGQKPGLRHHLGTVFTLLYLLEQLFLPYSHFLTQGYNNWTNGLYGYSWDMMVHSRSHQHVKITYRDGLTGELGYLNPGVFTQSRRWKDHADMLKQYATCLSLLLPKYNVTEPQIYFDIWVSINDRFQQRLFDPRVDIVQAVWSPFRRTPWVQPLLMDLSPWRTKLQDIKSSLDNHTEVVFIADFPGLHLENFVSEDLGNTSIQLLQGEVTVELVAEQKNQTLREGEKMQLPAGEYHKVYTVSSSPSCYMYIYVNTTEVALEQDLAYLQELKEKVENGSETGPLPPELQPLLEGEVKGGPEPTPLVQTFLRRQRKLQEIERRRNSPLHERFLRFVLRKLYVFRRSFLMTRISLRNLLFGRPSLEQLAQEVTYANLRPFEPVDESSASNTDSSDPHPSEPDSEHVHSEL
Excerpt: (§1) Prenylquinones like phylloquinone (vitamin K1), ubiquinone and plastoquinone function as co-enzymes during the conversion of glutamate into γ-carboxyl-glutamate (Gla), which is an essential step in the formation of the blood coagulation factors. The active form of vitamin K is the quinol (KH2), the oxidation of which provides the energy required for Gla formation. In this reaction KH2 is converted into vitamin K epoxide (KO), which is recycled in two steps by the action of an enzyme called KO-reductase.
(§2) In vitro systems were used to test either the γ-glutamylcarboxylase or KO-reductase. Salt-washed microsomes were prepared from the livers of normal cows and from normal and vitamin K-deficient rats of the Lewis strain.
(§3) Inhibition curves were prepared at a wide concentration range of prenylquinones (UQ-9, UQ-10, and PQ-9) using the cofactor vitamin K either in its quinol, its quinone, or in its epoxide form. From these curves the inhibitor concentrations required for 50% inhibition (I-50) were calculated (dotted lines in Fig. 1) for the various carboxylating enzyme systems from the cow as well as from rats. Incubations were performed under standard conditions, the inhibitors were added after solubilization in Triton X- 114. All points in Fig. 1 represent the means of duplicate experiments. 1-50 values were calculated as shown by the dotted lines.

[3] = molecular target: T2, Υ-glutamylcarboxylase (Bos taurus, UniProt Q07175); assay: Inhibition of carboxylase activity in salt-washed liver microsomes, bovine system; assay type: biochemical; conditions: cofactor KH2; mean of triplicate experiments with S.E.M.; read-out: I-50 (µm) in bovine system
T2 sequence (Q07175 2-758): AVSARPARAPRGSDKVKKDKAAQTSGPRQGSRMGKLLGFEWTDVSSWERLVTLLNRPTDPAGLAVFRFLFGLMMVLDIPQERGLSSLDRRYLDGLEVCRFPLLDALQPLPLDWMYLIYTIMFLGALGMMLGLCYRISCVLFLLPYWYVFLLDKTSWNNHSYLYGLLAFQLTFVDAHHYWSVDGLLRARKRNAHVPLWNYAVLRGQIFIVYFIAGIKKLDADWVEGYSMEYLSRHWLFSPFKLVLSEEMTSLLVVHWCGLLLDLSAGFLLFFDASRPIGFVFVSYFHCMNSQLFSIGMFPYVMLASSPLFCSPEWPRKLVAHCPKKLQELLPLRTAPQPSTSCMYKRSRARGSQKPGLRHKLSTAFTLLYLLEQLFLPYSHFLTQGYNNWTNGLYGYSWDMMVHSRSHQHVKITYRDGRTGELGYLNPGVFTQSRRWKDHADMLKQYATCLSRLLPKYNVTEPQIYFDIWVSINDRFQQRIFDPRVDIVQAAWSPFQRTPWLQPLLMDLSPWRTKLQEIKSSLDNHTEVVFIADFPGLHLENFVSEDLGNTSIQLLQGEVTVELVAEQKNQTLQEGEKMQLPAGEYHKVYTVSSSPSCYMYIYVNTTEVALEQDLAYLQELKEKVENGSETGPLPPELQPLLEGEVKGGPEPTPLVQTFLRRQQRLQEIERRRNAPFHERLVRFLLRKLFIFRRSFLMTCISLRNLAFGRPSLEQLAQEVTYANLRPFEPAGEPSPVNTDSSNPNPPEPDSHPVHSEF
Excerpt: as §1, §2, §3

[4] = molecular target: Υ-glutamylcarboxylase; assay: as above; assay type: biochemical; conditions: mean of triplicate experiments with S.E.M., read-out: I-50 (µm) in bovine system
Excerpt: as §1, §2, §3

Row | IC50 [2] | IC50 [3] | IC50 ([4]; cofactor K) | IC50 ([4]; cofactor KO) | Compound | effective dose extrapolated to humans [1]
1 | 25 ± 6 µM | 105 ± 14 µM | 86 ± 12 µM | 72 ± 8 µM | COC1=C(OC)C(=O)C(CC=C(C)CCC=C(C)CCC=C(C)CCC=C(C)CCC=C(C)CCC=C(C)CCC=C(C)CCC=C(C)CCC=C(C)C)=C(C)C1=O [UQ-9, ubiquinone-9] | about 40 mg
2 | 36 ± 7 µM | 110 ± 17 µM | 76 ± 5 µM | 91 ± 15 µM | COC1=C(OC)C(=O)C(CC=C(C)CCC=C(C)CCC=C(C)CCC=C(C)CCC=C(C)CCC=C(C)CCC=C(C)CCC=C(C)CCC=C(C)CCC=C(C)C)=C(C)C1=O [UQ-10, ubiquinone-10] | 

Row | Compound | IC50 [2] | IC50 [3] | IC50 ([4]; cofactor K) | IC50 ([4]; cofactor KO) | effective dose extrapolated to humans [1]
3 | CC(C)=CCC/C(C)=C/CC/C(C)=C/CC/C(C)=C/CC/C(C)=C/CC/C(C)=C/CC/C(C)=C/CC/C(C)=C/CC/C(C)=C/CC1=CC(=O)C(C)=C(C)C1=O [PQ-9, plastoquinone] | 39 ± 10 µM | 85 ± 11 µM | 59 ± 4 µM | 41 ± 7 µM | 
